In ChEMBL document CHEMBL1143887, “Novel amino linkers enabling efficient labeling and convenient purification of amino-modified oligonucleotides” (Bioorg Med Chem, 2008):

Experiment: Dissociation constant, pKa of the compound
Format: physicochemical

**Q.** With `NC[C@H](COCc1cccc2ccccc12)OC(=O)NCCCCCCO` as the compound, how does the pKa read?
**A.** 8.9
